# Experiments:
# cytidine deaminase = cytidine deaminase (Homo sapiens, UniProt P32320); conditions: compared with ara-C; cited from earlier work
# CTCL = conditions: cited from earlier work
# [1] = system: refractory solid tumours or lymphomas; assay: Open label dose escalation study of oral sapacitabine b.i.d. for 7 or 14 consecutive days every 21 days; type: in vivo
# Experimental: The study was conducted at the Institute for Drug Development, Cancer Therapy and Research Center (CTRC) in San Antonio, Tex. and Fox Chase Cancer Center in Philadelphia, Pa. The primary objective of the study was to evaluate the safety profile of sapacitabine administered twice daily for 14 consecutive days or 7 consecutive days every 21 days.
# The study was an open label dose escalation study of oral sapacitabine administered twice daily (b.i.d.) for 7 or 14 consecutive days every 21 days. One treatment cycle was 3 weeks. At least 3 patients were enrolled at each dose level. Dose escalation proceeded if ≦⅓ or ≦ 2/6 patients experienced dose limiting toxicity (DLT) during the first treatment cycle.
# [2] = system: advanced leukemias or myelodysplastic syndromes; assay: Phase I study, b.i.d. x 7 days orally every 21 days; type: in vivo
# Experimental: The Phase I study was conducted at M.D. Anderson Cancer Center (UTMDACC) in Houston, Tex. The primary objective was to define the MTD of a dosing schedule, b.i.d.×7 days orally every 21 days.
# Eligible patients had relapsed/refractory leukemias or MDS, or untreated disease if not willing to proceed with conventional systemic chemotherapy, adequate organ functions and performance status of 0-2. At least 3 patients were enrolled at each dose level. The MTD was the highest dose level at which ≦ 2/6 patients experienced a DLT during the first treatment cycle.
# [3] = system: solid tumours or lymphomas; conditions: 14 days every 21 days, body surface area basis; cited from earlier work
# colon cancer = conditions: model of colon cancer; cited from earlier work
# variety of cancers = conditions: phase I data; cited from earlier work
# P388 leukemia = conditions: mouse P388 leukemia model; cited from earlier work
# [4] = system: poorly differentiated gastric adenocarcinoma; conditions: human xenografts; cited from earlier work
# [5] = single-dose in rodents, repeat dose up to 3 months in mice and dogs; cited from earlier work
# NSCLC = conditions: 10 mg/m^2 intravenously over 30 minutes every three weeks; cited from earlier work
# [6] = 7-day schedule every 21 days, oral
# [7] = relapsed or refractory AML and MDS
# Sequence of cytidine deaminase (P32320 whole entry, species assumed): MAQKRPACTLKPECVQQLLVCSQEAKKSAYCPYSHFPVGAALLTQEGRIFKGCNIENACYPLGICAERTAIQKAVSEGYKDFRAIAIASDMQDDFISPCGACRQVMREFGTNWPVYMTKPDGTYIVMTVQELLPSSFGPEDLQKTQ
smiles,measurement,setting,value
"N#C[C@H]1[C@H](O)[C@@H](CO)O[C@H]1n1ccc(N)nc1=O [CNDAC, 2′-C-Cyano-2′-deoxy-β-D-arabino-pentafuranosylcytosine]",substrate of cytidine deaminase,cytidine deaminase,weak substrate
"Nc1ccn([C@@H]2O[C@H](CO)[C@@H](O)C2(F)F)c(=O)n1 [Gemcitabine, gemcitabine]",response rate,CTCL,60-70%
"CCCCCCCCCCCCCCCC(=O)Nc1ccn([C@@H]2O[C@H](CO)[C@@H](O)[C@@H]2C#N)c(=O)n1 [sapacitabine, 1-(2-C-cyano-2-deoxy-β-D-arabino-pentofuranosyl)-N^4-palmitoyl cytosine]",MTD,[1]; [6],100 mg b.i.d.
same,RD (recommended dose),[1]; [6],75 mg b.i.d.
same,dose limiting toxicity,"[1]; 7 and 14 day schedules, 16 patients",reversible myelosuppression
same,best response by investigator assessment,"[1]; 7 day schedule, squamous cell carcinoma",stable disease in one patient
same,recommended dose,"[1]; 14 day schedule every 21 days, oral",50 mg b.i.d.
same,"non-hematological toxicities, severity",[1]; in vivo,mostly mild to moderate
same,MTD,[2]; [6],375 mg b.i.d.
same,recommended dose,[2]; [6],325 mg b.i.d.
same,"patients with reduction in bone marrow blast counts to <5%, AML",[2]; AML subgroup of responders,9 patients
same,"patients with reduction in bone marrow blast counts to <5%, MDS",[2]; MDS subgroup of responders,2 patients
same,patients with reduction in bone marrow blast counts to <5%,[2]; all evaluable patients,11 patients of 42 evaluable
same,"common non-hematologic adverse events, intensity","[2]; all grades, regardless of causality",mild to moderate in intensity
same,CRs with incomplete recovery of platelets,[2]; in vivo,2 patients
same,complete remissions (CRs),[2]; in vivo,2 patients
same,deaths from complications of neutropenic colitis,[2]; in vivo,One
same,predominant DLT,[2]; in vivo,gastrointestinal toxicity
same,DLT: abdominal pain/small bowel obstruction,[2]; number of patients,1 n
same,DLT: diarrhea,[2]; number of patients,3 n
same,DLT: neutropenic colitis,[2]; number of patients,2 n
same,antileukemic activity,[2]; [7],promising antileukemic activity
same,tolerability,[2]; [7],well tolerated
same,recommended dose,[3],33 mg/m^2
same,anticancer activity,colon cancer,strong anticancer activity
same,"increasing survival and preventing spread of metastases to the liver, comparison",colon cancer,superior to either gemcitabine or 5-FU
same,dose limiting toxicity,variety of cancers,myelosuppression
same,tolerability,variety of cancers,well tolerated
same,"antitumour activity, comparison",P388 leukemia,much more potent antitumour activity than 5′-DFUR and gemcitabine
same,"antitumour activity, comparison",[4],much more potent antitumour activity than 5′-DFUR and gemcitabine
same,major toxicities,[5],"hematopoietic, gastrointestinal, and testicular"
Nc1ccn([C@@H]2CO[C@H](CO)O2)c(=O)n1 [troxacitabine],activity in NSCLC,NSCLC,little activity
